Test results reported in PMC7380166, “How to Study the Metabolism of New Psychoactive Substances for the Purpose of Toxicological Screenings—A Follow-Up Study Comparing Pooled Human Liver S9, HepaRG Cells, and Zebrafish Larvae” (Frontiers in Chemistry, 2020).

What was measured:
[1] = Authentic human urine sample after intake of 4F-MDMB-BINACA, LC-HRMS/MS; type: in vivo; conditions: one patient, unknown dose and time point of intake
Description: Human blood and urine collected after a suspected intake of drugs of abuse were submitted to the authors' laboratory for regular clinical toxicological analysis. The blood sample was centrifuged, and plasma was separated. The authors' standard liquid–liquid extraction for human plasma screening was used (Maurer et al., [2016]). Briefly, 1,000 μl of plasma was mixed with 100 μl of internal standard (0.01 μg/μl trimipramine-d3 in methanol) and extracted with 5,000 μl of a mixture of diethyl ether:ethyl acetate (1:1, v/v) after addition of 2,000 μl of saturated sodium sulfate solution. Phase separation was mediated by centrifugation. The organic layer was transferred into a flask and evaporated to dryness at 60°C under reduced pressure. The aqueous residue was then alkalized with 500 μl of 1 M sodium hydroxide and extracted a second time with 5,000 μl of the diethyl ether:ethyl acetate mixture. The organic extract was transferred to the same flask and evaporated as described before. The combined residues were dissolved in 100 μl of methanol and transferred into an autosampler vial, and 5 μl was injected onto the LC-HRMS/MS system. An aliquot of the human urine sample (100 μl) was prepared according to a previous study by precipitation with 500 μl of acetonitrile (Wissenbach et al., [2011]). The mixture was shaken and centrifuged (18,407 × g, 2 min). […]

[2] = target: T1, hCES1b (Homo sapiens, UniProt P23141); assay: Esterases activity screening, hCES1b; type: in vitro ADME; set-up: key: +, detected; –, not detected; conditions: 100 μM 4F-MDMB-BINACA, 0.2 mg protein/ml, duplicate
T1 construct: purchased Corning
T1 sequence (P23141 18-567): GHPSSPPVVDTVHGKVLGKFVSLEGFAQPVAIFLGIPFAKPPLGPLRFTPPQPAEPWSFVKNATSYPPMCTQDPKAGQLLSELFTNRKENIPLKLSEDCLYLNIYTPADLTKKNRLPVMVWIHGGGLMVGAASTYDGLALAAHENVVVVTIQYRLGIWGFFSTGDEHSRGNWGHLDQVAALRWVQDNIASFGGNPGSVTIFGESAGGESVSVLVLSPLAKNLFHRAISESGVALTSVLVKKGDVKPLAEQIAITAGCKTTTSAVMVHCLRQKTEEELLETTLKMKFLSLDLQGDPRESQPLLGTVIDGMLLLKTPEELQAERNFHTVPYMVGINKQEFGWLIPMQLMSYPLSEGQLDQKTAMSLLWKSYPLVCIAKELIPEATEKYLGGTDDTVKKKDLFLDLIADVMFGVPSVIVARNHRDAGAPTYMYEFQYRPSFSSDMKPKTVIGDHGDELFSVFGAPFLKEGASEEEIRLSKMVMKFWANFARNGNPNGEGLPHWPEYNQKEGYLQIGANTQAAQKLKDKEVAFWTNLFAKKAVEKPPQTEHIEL
Description: Experiments were performed in accordance with a previous study (Meyer et al., [2015]) with minor modifications. The final volume per reaction tube was 100 μl with a final 4F-MDMB-BINACA concentration of 100 μM and enzyme concentration of 0.2 mg protein/ml for hCES1b, hCES1c, and hCES2. Incubations with pHLM and pHLS9 (0.2 mg protein/ml, each) were performed in a similar manner. Additionally, incubations with human plasma (50 μl pooled human plasma, 40 μl phosphate buffer, and 10 μl substrate) were performed. The reactions were started by adding the enzyme-containing preparation and terminated with an equal volume of ice-cold acetonitrile containing diazepam-d5 (100 μM) as an internal standard. Only plasma incubations were terminated by addition of a three-fold volume of ice-cold acetonitrile. The reaction mixtures were centrifuged at 18,407 × g for 15 min, and then supernatants were transferred to autosampler vials, and 5 μl was injected onto the LC-HRMS/MS system. Negative control incubations without enzyme were prepared to identify non-metabolically formed compounds. All incubations were done in duplicate.

SMILES | Detectability of the parent compound in urine [1] | Detection of metabolite in incubation with hCES1b [2]
COC(=O)C(NC(=O)c1nn(CCCCF)c2ccccc12)C(C)(C)C (centres unmarked) [4F-MDMB-BINACA, methyl 2-[1-(4-fluorobutyl)-1H-indazole-3-carbonyl]amino-3,3-dimethylbutanoate] | barely detectable | 
O=C(O)c1nn(CCCCF)c2ccccc12 [MB1] |  | –
